Measured values reported in US8822541B2, “Use of targeted nitroxide agents in mitigating or treating radiation injury” (University of Pittsburgh—Of the Commonwealth System of …, priority 2008, dated 2014).
Entries after “also recorded” stand apart in the source; their conditions may differ.

Assays:
[1] = system: 32D cl 3 mouse hematopoietic progenitor cell line; experiment: Irradiation survival curves of 32D cl 3 cells with JP4-039 (Example 10); assay type: cell-based; conditions: 10 μM, control 1.29
Procedure: Irradiation survival curves were performed on cells from the 32D cl 3 mouse hematopoietic progenitor cell line, incubated in 10 μM JP4-039 for 1 hour before irradiation, or plated in methycellulose containing 10 μM JP4-030 after irradiation. Cells were irradiated from 0 to 8 Gy, plated in 0.8% methycellulose containing media, and incubated for 7 days at 37° C. Colonies of greater than 50 cells were counted and data analyzed by linear quadratic and single-hit, multi-target models.

rat ileal mucosa = experiment: Peroxidation of phospholipids in intestinal mucosa after hemorrhagic shock; assay type: in vivo; conditions: 10 μM intraluminal, 2 h HS
Excerpt: Assay for peroxidation of phospholipids. Gut mucosal samples were homogenized. Lipids were extracted from homogenates using the Folch procedure, see M. Lees and G. H. Sloan-Stanley, A simple method for isolation and purification of total lipids from animal tissue, J. BIOL. CHEM. 226:497-509 (1957), and resolved by 2D HPTLC (High Performance Thin Layer Chromatography) as previously described, see Kagan, V. E. et al., A role for oxidative stress in apoptosis: Oxidation and externalization of phosphatidylserine is required for macrophage clearance of cell undergoing Fas-mediated apoptosis, J Immunol, 2002, 169:487-489. Spots of phospholipids'were scraped from HPTLC plates and phospholipids were extracted from silica. Lipid phosphorus was determined by a micro-method, see Bottcher, C. J. F. et al., A rapid and sensitive sub-micro phosphorus determination, Anal Chim Acta. 1961, 24: 203-204.
Oxidized phospholipids were hydrolyzed by pancreatic phospholipase A2 (2 U/μl) in 25 mM phosphate buffer containing 1 mM CaCl2, 0.5 mM EDTA and 0.5 mM sodium dodecyl sulfate (SDS) (pH 8.0, at room temperature for 30 min). Fatty acid hydroperoxides formed were determined by fluorescence HPLC of resorufin stoichiometrically formed during their microperoxidase 11-catalized reduction in presence of Amplex Red (for 40 min at 4° C.) (8). Fluorescence HPLC (Eclipse XDB-C18 column, 5 μm, 150×4.6 mm, mobile phase was composed of 25 mM disodium phosphate buffer (pH 7.0)/methanol (60:40 v/v); excitation wavelength 560 nm, emission wavelength 590 nm) was performed on a Shimadzu LC-100AT HPLC system equipped with fluorescence detector (RF-10Axl) and autosampler (SIL-10AD).
(§1) In the subsequent series of in vivo studies, the affect of intraluminal XJB-5-131 on hemorrhage-induced peroxidation of phospholipids in intestinal mucosa was examined. […] In a preferred embodiment, 0.3 mL of test solution filled the lumen of each ileal compartment.
After two hours of HS, samples of ileal mucosa from the gut sacs filled with the vehicle and XJB-5-131 were obtained and compared with ileal mucosa of normal MECs. […]

caspases 3 and 7 = experiment: Caspases 3 and 7 activity in gut mucosa after hemorrhagic shock; assay type: in vivo, rat; conditions: 10 μM intraluminal, vs vehicle
Procedure: Caspases 3 and 7 activity assay. Caspases 3 and 7 activity was measured using a commercially available assay kit, Caspase GIo™ 3/7 assay kit (Promega, Madison, Wis.). Briefly, 50 μl of rat gut mucosa homogenate (20 jug protein) was mixed with 50 μl of Caspase-Glo™ reagent and incubated at room temperature for 1 hour. At the end of incubation period, the luminescence of each sample was measured using a plate reading chemiluminometer (ML1000, Dynatech Laboratories, Horsham, Pa.). Activity of caspases 3 and 7 was expressed as luminescence intensity (arbitrary units per mg protein). Protein concentrations were determined using the BioRad assay (Bio-Rad Laboratories, Inc., Hercules, Calif.).
as §1
After two hours of HS, samples of ileal mucosa from the gut sacs filled with the vehicle and XJB-5-131 were obtained and compared with ileal mucosa of normal MECs. All samples were assayed with caspase 3 or caspase 7 activity as well as the peroxidation of phosphatidylcholine (“PC”), phosphatidylethanolamine (“PE”), phosphatidylserine (“PS”), and cardiolipin (“CL”), summarized in FIG. 7.

Ercc1−/Δ mice = experiment: Signs of aging in progeroid Ercc1−/Δ mice; assay type: in vivo, mouse; conditions: 2 mg/kg ip three times per week
Procedure: To assess the effectiveness of XJB-5-131 in inhibiting degeneration and/or signs of aging, the compound was administered, over an 18-21 week period, progeroid
Ercc1^−/Δ mice, at a dose of 2 mg/kg in sunflower oil carrier (to promote solubility) administered intraperitoneally three times per week (FIG. 32). Sunflower seed oil was administered to twin Ercc1^−/Δ mice according to the same schedule as a control. The treated and control mice were monitored twice a week for weight and symptom/sign development.
FIG. 33 presents a summary table showing the results of the treatment with XJB-5-131 (“XJB” in this Figure), relative to control (sunflower seed oil) after treatment from 5 wks of life until death. The numbers indicate the average age at onset of each age-related symptom for mice treated with XJB-5-131 or vehicle only (oil) (n=5 mice per group). […] Of note, all of the signs of neurodegeneration, including dystonia, trembling, ataxia, wasting and urinary incontinence were delayed in the treated animals, providing strong evidence that XJB-5-131 protects neurons against degenerative changes caused by oxidative stress.
To assess the ability of XJB-5-131 to inhibit deterioration of intervertebral discs (an index of degenerative disease of the vertebra), the level of glycosaminoglycan in the discs in treated and control mice were measured, and the results are shown in FIG. 34. The intervertebral discs of treated mice contained approximately 30 percent more glycosaminoglycan relative to control mice, indicating inhibition of disc degeneration.

Row | Structure (SMILES) | ñ (shoulder on the survival curve) ([1]; drug added after irradiation) | ñ (shoulder on the survival curve) ([1]; drug added before irradiation) | peroxidation of phosphatidylcholine (PC) (rat ileal mucosa) | peroxidation of phosphatidylethanolamine (PE) (rat ileal mucosa) | peroxidation of phosphatidylserine (PS) (rat ileal mucosa) | caspase 3 and 7 activity after hemorrhagic shock (caspases 3 and 7) | body weight (Ercc1−/Δ mice) | glycosaminoglycan in intervertebral discs relative to control mice (Ercc1−/Δ mice) | onset of signs of neurodegeneration (dystonia, trembling, ataxia, wasting, urinary incontinence) (Ercc1−/Δ mice) | overall aging score (Ercc1−/Δ mice)
1 | CC(C)C[C@@H](/C=C/CC(=O)NC1CC(C)(C)N([O])C(C)(C)C1)NC(=O)OC(C)(C)C [JP4-039, TEMPO-4-yl-(S,E)-5-(tert-butoxycarbonylamino)-7-methyloct-3-enamide] | 4.55±0.47 | 5.25±0.84 | – | – | – | – | – | – | – | –
2 | CC(C)C[C@@H](/C=C/[C@H](Cc1ccccc1)C(=O)N1CCC[C@H]1C(=O)N[C@H](C(=O)N[C@@H](CCCNC(=O)OCc1ccccc1)C(=O)NC1CC(C)(C)N([O])C(C)(C)C1)C(C)C)NC(=O)OC(C)(C)C [XJB-5-131] | – | – | no effect | small effect | no effect | significantly decreased | did not lose weight; also recorded: does not cause weight loss | approximately 30 percent more | delayed | significantly improved
